Test [1] deals with Neural-crest derived PC12 cells. The test can be described thus: APOPercentage apoptosis assay, serum-deprivation induced apoptosis of PC12 cells. Format: cell-based, rat. The note with it: for IC50: Rattus norvegicus, PC-12, absence of serum 12 hours, ApoPercentage assay (FIG. 2), read-out: IC50 of anti-apoptotic, cytoprotective effect. On the procedure: Neural-crest derived PC12 cells were maintained in culture at 5% CO2, at 37° C., in RPMI 1640 medium containing 2 mM L-glutamine, 15 mM HEPES, 100 units/ml penicillin, 0.1 mg/ml streptomycin, 10% horse serum, and 5% foetal calf serum. Serum free medium was supplemented with 1% bovine serum albumin (BSA). Different steroids, used at various concentrations, were initially diluted in ethanol. The final concentration of ethanol in each well, including controls was 0.01%. Conjugate DHEA-BSA was initially diluted in Phosphate Buffer Saline (PBS).
Cells were cultured in the absence of serum for 12 hours, supplemented with DHEA and various synthetic spiro neurosteroids at 10 nM. Cell apoptosis was quantitated with two different methods: The APOPercentage Apoptosis Assay (Biocolor Ltd., Belfast, N. Ireland) was used to quantify apoptosis, according to the manufacturer's instructions. Apoptosis was quantified following cell lysis by measuring the dye incorporated in apoptotic cells at 550 nm (reference filter 620 nm) using a colour filter microplate colorimeter (Dynatech MicroElisa reader, Chantilly, Va.) (see FIGS. 1 and 2). FACS Analysis: FACS analysis of apoptotic cells was performed according to our protocol (Proc Natl Acad Sci USA 101,8209 (2004)). Flow cytometry was performed with FACScan (Becton Dickinson, Heidelberg, Germany) and the results were analysed with the FACScan and Cell Quest softwares (see FIG. 3).

In test [2] the test system is Primary cortical neurospheres. The test can be described thus: Migration of neural cells from primary cortical neurospheres. Format: cell-based, mouse. The note with it: 10^-7 M, within 24-48 hrs of culture, EGF/bFGF dependent (FIG. 7). The protocol: Primary cortical neurospheres (21d) generated from wild type mice were cultured attached on PLL and laminin-coated coverslips in serum-free media in the presence or absence of EGF and bFGF (20 ng/ml final concentration each). For the screen, the media was supplemented with ethanol, retinoic acid (at-RA), DHEA, or the synthetic spiro neurosteroid BNN-93, at a final concentration of 10^−7M.

Test [3] relates to tyrosine hydroxylase mRNA. The test can be described thus: Tyrosine hydroxylase (TH) RT-PCR in dopaminergic PC12 cells. Format: cell-based, rat. To be noted: dopaminergic PC12 cells (FIG. 6C). The protocol: Tyrosine Hydroxylase (TH) RT-PCR: Total RNA was extracted from dopaminergic PC12 cells using the Trizol Reagent (Invitrogen Life technologies, CA). One microgram of total RNA was reverse transcribed by the Thermo-Script RT-PCR System (Invitrogen) using random hexamers in a total volume of 20 μl. Two microliters of the RT product was used as a template, amplified by PCR using 2 mM MgCl2, one strength PCR buffer, 0.2 mM of sense and antisense primers, 0.2 mM dNTPs and 2.5 U AmpliTaq Gold DNA polymerase (Perkin Elmer ABD, Foster City, Calif.) in a final reaction volume of 50 μl. PCR was performed in a Perkin Elmer DNA Thermal Cycler. Primers for TH were 5′-[…]-3′ (sense), and 5-[…]-3 (antisense) and for G3PDH were, 5′-[…]-3′ (sense), and 5′-[…]-3′ (antisense). Oligonucleotides were synthesized by MWG-Biotech AG (Munich, Germany). After reverse transcription, the cDNA product was amplified by PCR, at 33 cycles. The cycle number (33) was chosen such that amplification of the products was in the linear range with respect to the amount of input cDNA. PCR for G3PDH was performed in parallel to assure good quality of RNA and cDNA preparations. Each cycle consisted of 60 s at 92° C. for denaturation, 120 s at 53° C. for annealing, and 180 s at 72° C. for extension (60 s at 98° C., 90 s at 55° C., and 150 s at 72° C. for G3PDH respectively). 10 μl of the amplified products (368 bp for TH and 983 bp for G3PDH) were separated on a 2% agarose gel and visualized by ethidium bromide staining.

For test [4], the system named is Bcl-2 and Bcl-xL proteins. The experiment in a line: Western blot of anti-apoptotic Bcl-2 and Bcl-xL proteins in serum-deprived PC12 cells. In kind it is cell-based, rat. The note with it: 10 nM neurosteroid (FIG. 4). On the procedure:
Neural-crest derived PC12 cells were cultured for 8 hours in the absence of serum, but supplemented with 10 nM of various neurosteroids. At the end of incubation cell lysates were subjected to electrophoresis through a 12% SDS-polyacrylamide gel. Then, proteins were transferred to nitrocellulose membranes, which were processed according to standard Western blotting procedures. To detect protein levels, membranes were incubated with the appropriate antibodies: Bcl-2, (Santa Cruz Biotechnology Inc., Santa Cruz, Calif., dilution 1:100) Bcl-xL (Cell Signalling Technology Inc., Beverly, Mass., dilution 1:100). A PC-based Image Analysis program was used to quantify the intensity of each band (Image Analysis, Inc., Ontario, Canada). To normalize for protein content, the blots were stripped and stained with anti-actin antibodies (Chemicon, Temecula, Calif., dilution 1:400); the concentration of each target protein was normalized versus actin.
A general note: In western blotting, separated proteins are transferred to a membrane and probed.

In test [5] the test system is DHEA specific membrane receptors. The experiment in a line: [3H]DHEA competition binding on isolated PC12 cell membranes. To be noted: for Kd: isolated PC12 cell membranes, 5 nM [3H]DHEA (FIG. 5). Details: species or system rat. On the procedure: PC12 rat sympathoadrenal cells were cultured in 225 cm^2 flasks and, after washing twice with PBS, they were detached from the flasks by vigorous shaking. After a centrifugation at 1500 g, they were homogenized by sonication, in a 50 mM Tris-HCl buffer pH 7.4 at 4° C., containing freshly added protease inhibitors (1 mM PMSF and 1 μg/ml aprotinin). Unbroken cells were removed by centrifugation at 1500 g (10 min at 4° C.), and membranes were collected by centrifuging at 102,000 g for 1 hr at 4° C. Membranes were washed once with Tris-HCl, briefly acidified at 4° C. (for 3 min) with 50 mM glycine (pH 5.0), and re-suspended in the same buffer. Protein content was assayed by the method of Bradford, using reagents from Bio-Rad (Hercules, Calif.). Membranes (at a final concentration of 2 mg/ml) were incubated with 5 nM [^3H]DHEA, in the absence (to determine the total binding) or presence of unlabeled neurosteroids and their synthetic spiro analogs, at concentrations varying from 10^−12 to 10^−6 M and at a final volume of 100 μl, in Tris-HCl buffer (50 mM, pH 7.4). Following a […] incubation in a water bath, at 37° C., membranes were collected on GF/B filters, prewet in 0.5% PEI solution at 4° C. The filters were washed three times with ice-cold Tris-HCl, dried, supplemented with scintillation medium (Sigma Hellas, Athens, Greece) and counted in a β-scintillation counter (Perkin Elmer, Foster City, Calif.) with 60% efficiency for Tritium.

For another test, the system named is progenitor neural cells. The test can be described thus: Neurogenesis of progenitor neural cells isolated from mouse fetal brain. In kind it is cell-based. The note with it: 100 nM, 24 hours (FIG. 8). The protocol:
This effect appeared to be EGF/bFGF dependent. […] The extent of migration of the first days in culture was mostly normalised as in most conditions cells had migrated out of the sphere to the periphery. The photographs shown (FIG. 7) were obtained on the 6th day of culture where migration effects are not so dramatic but still evident. Additionally, progenitor neural cells, isolated from mouse fetal brain, were exposed for 24 hours to 100 nM of BNN-93 or to the vehicle (control).

In test [6] the test system is Dopaminergic neural-crest derived PC12 cells. The experiment in a line: Dopamine secretion from dopaminergic PC12 cells (radioimmunoassay). In kind it is cell-based, rat. The note with it: 10^-7 M; for dopamine levels in culture media, long-term: 3 to 48 hours (FIG. 6B); for stimulation of dopamine secretion, short-term: 5 to 30 min, effect within 10 min (FIG. 6A). On the procedure: Dopaminergic neural-crest derived PC12 cells were grown in 6-well plates, coated with poly-L-lysine, at a concentration of 10^6 cells/well. Cells were incubated with neurosteroids or the vehicle for several time periods; for the short-term experiments the incubation time ranged from 5 to 30 minutes and for the long-term from 3 to 48 hours. 1 mL of supernatants were transferred to tubes containing 200 μl 0.1 M HCl for measurement of dopamine, which was measured by radioimmunoassay (TriCat™ RIA, RE29395, IBL Immuno Biological Lab., Hamburg, Germany) using ^125I as a tracer. The analytical sensitivity of the method was 30 pg/ml, its intra-assay CV was 9.5%, and its inter-assay CV was 16.7%. The cross reactivity between dopamine and norepinephrine was <0.013%

Test [7] deals with Bcl-2 protein and ERK1/2 kinase. The experiment in a line: Western blot of Bcl-2 and phosphorylated ERK1/2 in serum deprived PC12 cells. The note with it: 8 hours, 10 nM BNN-124 or 20 ng/ml NGF (FIG. 9). In kind it is cell-based, rat. On the procedure:
Neural-crest derived PC12 cells were cultured for 8 hours in the absence of serum, but supplemented with 10 nM of synthetic neurosteroids of 20 ng/ml of NGF. At the end of incubation cell lysates were subjected to electrophoresis through a 12% SDS-polyacrylamide gel. Then proteins were transferred to nitrocellulose membranes, which were processed according to standard Western blotting procedures. To detect protein levels, membranes were incubated with the appropriate antibodies: Bcl-2 (Santa Cruz Biotechnology Inc., Santa Cruz, Calif., dilution 1:100), phosphorylated ERK1/2 (Cell Signalling Technology Inc., Beverly, Mass., dilution 1:100). To normalize for protein content, the blots were stripped and stained with anti-actin or anti-total ERK1/2 antibodies (Chemicon, Temecula, Calif., dilution 1:400).

Experimental findings from patent publication US9777037B2, “Neurosteroid compounds” (BIONATURE E. A. LTD., priority 2007, dated 2017) are described below.

Turning to `C[C@]12CC[C@H](O)CC1=CCC1C2CC[C@@]2(C)C1CC[C@@]21OC1CO` (stereo partly drawn) [BNN-93, 3β,21-dihydroxy-17α,20-epoxy-5-pregnene], the concentration for half-maximal inhibition (IC50) (in general, the point on the concentration scale where inhibition reaches its midpoint) in test [1] is 4.16 nM. For the same compound, the “migration of neural cells to the periphery of the neurospheres” value in test [2] is reported as “extensive migration”. The “induction of tyrosine hydroxylase mRNA” value in test [3] is on record as “strong induction”. In addition, the “levels of anti-apoptotic Bcl-2 and Bcl-xL proteins” value in test [4] is “preventing this effect”. In addition, the “displacement of specific [3H]DHEA binding” value in test [5] (at 1 μM, PC12 cell membranes) was “approximately 60%”. Further, in test [5], the equilibrium dissociation constant (Kd) (in general, a measure of binding affinity in units of concentration) came to 11.2 nM. In addition, in the test on progenitor neural cells, the “neurogenesis and differentiation of progenitors to neural cells” value was “stimulated neurogenesis and differentiation”. Further, in test [6], the “dopamine levels in culture media, long-term” value was “increase of dopamine levels peaking at 24 h” and the “stimulation of dopamine secretion, short-term” value was “doubling their levels”.

As to `C[C@]12CC[C@H](O)CC1=CC[C@@H]1[C@@H]2CC[C@]2(C)C(=O)CC[C@@H]12` [DHEA, dehydroepiandrosterone, reference compound], the IC50 in test [1] was found to be 0.15 nM. For the same compound, the “reversal of serum deprivation-induced apoptosis” value in test [1] (absence of serum 12 hours, steroids at 10 nM (FIG. 1)) is ~50%. Also, in test [2], the “migration of neural cells to the periphery of the neurospheres” value was “extensive migration”. The “levels of anti-apoptotic Bcl-2 and Bcl-xL proteins” value in test [4] is listed as “preventing this effect”. Further, the “competition for [3H]DHEA binding” value in test [5] (at 1 μM, PC12 cell membranes) is on record as “Almost complete competition”. Also, in test [5], the affinity, expressed as Kd, was 1.1 nM. For the same compound, the “stimulation of dopamine secretion, short-term” value in test [6] is reported as “doubling their levels”.

As to `C[C@]12CC[C@H](OS(=O)(=O)O)CC1=CC[C@@H]1[C@@H]2CC[C@]2(C)C(=O)CC[C@@H]12` [DHEAS, reference compound], the “induction of tyrosine hydroxylase mRNA” value in test [3] is “strong induction”. For the same compound, the “dopamine levels in culture media, long-term” value in test [6] is given as “increase of dopamine levels peaking at 24 h”.

For the compound NGF: nerve growth factor, in test [7], the “induction of anti-apoptotic Bcl-2 protein and phosphorylation of ERK1/2 kinase” value is reported as “inducing”.
